In PMC7026418, “The kinase polypharmacology landscape of clinical PARP inhibitors” (Scientific Reports, 2020):
Read-outs that look alike come from different tables or passages of the source. One block for each molecule: values may come before it.

Columns and labels:
Assay in all cases: biochemical
Set-up in all cases: DiscoveRx KINOMEscan active site-directed competition binding; percent of control kinase bound to immobilised ligand
INSRR = INSRR (Homo sapiens, UniProt P14616)
DMPK2 = biological target: T1, DMPK2 (Homo sapiens, UniProt Q6DT37)
T1 construct: gene CDC42BPG
T1 sequence (Q6DT37 whole entry): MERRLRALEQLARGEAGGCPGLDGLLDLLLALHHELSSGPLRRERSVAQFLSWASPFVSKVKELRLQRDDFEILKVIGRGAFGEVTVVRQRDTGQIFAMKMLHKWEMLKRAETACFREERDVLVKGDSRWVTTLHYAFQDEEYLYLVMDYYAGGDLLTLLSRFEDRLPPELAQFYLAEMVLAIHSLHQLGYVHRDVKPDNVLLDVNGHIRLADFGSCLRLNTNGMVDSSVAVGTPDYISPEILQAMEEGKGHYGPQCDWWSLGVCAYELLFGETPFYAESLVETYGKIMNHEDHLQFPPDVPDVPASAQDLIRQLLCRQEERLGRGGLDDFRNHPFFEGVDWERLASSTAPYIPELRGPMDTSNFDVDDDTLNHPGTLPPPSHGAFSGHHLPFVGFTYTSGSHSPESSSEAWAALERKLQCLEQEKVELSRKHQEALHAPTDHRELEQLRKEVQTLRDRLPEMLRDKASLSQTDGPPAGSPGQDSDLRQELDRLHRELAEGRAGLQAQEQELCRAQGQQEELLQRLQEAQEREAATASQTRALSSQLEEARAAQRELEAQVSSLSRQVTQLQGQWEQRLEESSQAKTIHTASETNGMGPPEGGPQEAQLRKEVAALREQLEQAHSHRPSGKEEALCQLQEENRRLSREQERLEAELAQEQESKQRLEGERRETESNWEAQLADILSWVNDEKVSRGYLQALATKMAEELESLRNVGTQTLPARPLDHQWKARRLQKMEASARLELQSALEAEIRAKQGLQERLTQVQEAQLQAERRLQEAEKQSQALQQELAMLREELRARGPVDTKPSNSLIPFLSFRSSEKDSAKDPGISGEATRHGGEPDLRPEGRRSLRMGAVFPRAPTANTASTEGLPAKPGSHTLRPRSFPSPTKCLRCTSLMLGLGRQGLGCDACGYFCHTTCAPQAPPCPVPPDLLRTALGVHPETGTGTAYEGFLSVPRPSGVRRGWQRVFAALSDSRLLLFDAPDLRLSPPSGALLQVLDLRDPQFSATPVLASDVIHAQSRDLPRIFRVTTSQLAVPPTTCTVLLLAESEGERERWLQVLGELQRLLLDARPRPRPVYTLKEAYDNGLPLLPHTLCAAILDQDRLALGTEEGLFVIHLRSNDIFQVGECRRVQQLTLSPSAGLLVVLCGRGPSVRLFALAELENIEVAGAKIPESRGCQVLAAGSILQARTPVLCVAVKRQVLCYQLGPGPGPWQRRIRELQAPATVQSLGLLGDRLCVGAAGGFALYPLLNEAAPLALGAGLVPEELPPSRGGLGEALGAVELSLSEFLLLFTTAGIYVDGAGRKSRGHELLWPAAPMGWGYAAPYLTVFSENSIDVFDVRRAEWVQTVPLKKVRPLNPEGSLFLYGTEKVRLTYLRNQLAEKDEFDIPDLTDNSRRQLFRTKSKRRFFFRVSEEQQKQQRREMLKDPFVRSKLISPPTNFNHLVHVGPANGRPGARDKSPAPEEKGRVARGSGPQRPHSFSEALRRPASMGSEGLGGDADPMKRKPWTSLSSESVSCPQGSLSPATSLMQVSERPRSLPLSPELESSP

BMX = biological target: T2, BMX (Homo sapiens, UniProt P51813)
T2 sequence (P51813 1-675): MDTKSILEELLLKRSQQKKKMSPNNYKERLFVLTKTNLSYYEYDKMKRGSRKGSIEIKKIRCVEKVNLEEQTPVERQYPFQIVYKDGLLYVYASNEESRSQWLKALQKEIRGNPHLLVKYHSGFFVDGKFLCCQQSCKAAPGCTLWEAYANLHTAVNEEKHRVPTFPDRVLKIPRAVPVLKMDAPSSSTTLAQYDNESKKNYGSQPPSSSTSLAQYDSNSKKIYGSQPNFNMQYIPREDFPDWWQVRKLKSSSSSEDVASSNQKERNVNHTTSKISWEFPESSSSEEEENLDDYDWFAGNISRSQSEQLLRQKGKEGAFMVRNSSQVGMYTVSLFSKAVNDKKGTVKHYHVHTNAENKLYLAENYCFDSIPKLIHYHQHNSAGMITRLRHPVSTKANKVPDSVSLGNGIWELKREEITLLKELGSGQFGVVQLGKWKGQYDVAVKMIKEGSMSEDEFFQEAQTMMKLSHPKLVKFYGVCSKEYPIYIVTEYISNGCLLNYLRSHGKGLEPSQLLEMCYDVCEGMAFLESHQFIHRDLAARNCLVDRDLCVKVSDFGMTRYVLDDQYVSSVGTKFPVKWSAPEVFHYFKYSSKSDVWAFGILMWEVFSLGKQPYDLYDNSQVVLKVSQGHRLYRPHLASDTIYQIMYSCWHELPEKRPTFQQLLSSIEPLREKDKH

CSNK1G2 = CSNK1G2 (Homo sapiens, UniProt P78368)
CSNK1G2, sequence (P78368 whole entry): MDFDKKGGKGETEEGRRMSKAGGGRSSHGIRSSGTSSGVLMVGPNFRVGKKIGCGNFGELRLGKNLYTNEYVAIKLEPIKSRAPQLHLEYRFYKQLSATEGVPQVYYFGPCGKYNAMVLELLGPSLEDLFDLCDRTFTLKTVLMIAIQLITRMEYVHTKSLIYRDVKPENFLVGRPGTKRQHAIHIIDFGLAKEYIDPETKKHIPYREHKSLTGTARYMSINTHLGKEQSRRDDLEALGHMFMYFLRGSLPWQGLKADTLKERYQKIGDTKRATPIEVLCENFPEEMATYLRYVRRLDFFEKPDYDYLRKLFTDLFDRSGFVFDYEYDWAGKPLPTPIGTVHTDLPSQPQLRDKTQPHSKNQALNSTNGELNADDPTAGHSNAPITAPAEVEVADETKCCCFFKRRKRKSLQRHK

IKK-epsilon = biological target: T3, IKK-epsilon (Homo sapiens, UniProt Q14164)
T3 construct: gene IKBKE
T3 sequence (Q14164 1-716): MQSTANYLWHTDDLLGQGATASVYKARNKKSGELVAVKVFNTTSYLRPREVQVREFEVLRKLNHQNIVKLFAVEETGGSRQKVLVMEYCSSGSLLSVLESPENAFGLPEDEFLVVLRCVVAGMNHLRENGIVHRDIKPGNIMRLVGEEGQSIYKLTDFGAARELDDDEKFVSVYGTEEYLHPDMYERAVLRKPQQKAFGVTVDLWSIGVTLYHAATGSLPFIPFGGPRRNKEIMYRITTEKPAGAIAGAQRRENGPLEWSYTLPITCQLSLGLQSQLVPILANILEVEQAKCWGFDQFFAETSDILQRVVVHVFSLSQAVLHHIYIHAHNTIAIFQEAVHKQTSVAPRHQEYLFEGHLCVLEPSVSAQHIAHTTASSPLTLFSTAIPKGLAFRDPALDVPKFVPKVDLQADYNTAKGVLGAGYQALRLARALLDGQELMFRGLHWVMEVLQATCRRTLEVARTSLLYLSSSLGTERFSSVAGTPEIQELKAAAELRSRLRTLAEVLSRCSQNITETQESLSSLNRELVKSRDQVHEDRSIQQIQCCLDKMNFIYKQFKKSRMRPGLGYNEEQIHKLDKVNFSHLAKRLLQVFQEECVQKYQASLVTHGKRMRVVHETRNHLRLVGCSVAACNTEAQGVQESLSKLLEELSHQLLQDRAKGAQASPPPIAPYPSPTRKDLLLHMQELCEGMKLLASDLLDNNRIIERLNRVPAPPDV

PIK3CG = PIK3CG (Homo sapiens, UniProt P48736)
PIK3CG, sequence (P48736 whole entry): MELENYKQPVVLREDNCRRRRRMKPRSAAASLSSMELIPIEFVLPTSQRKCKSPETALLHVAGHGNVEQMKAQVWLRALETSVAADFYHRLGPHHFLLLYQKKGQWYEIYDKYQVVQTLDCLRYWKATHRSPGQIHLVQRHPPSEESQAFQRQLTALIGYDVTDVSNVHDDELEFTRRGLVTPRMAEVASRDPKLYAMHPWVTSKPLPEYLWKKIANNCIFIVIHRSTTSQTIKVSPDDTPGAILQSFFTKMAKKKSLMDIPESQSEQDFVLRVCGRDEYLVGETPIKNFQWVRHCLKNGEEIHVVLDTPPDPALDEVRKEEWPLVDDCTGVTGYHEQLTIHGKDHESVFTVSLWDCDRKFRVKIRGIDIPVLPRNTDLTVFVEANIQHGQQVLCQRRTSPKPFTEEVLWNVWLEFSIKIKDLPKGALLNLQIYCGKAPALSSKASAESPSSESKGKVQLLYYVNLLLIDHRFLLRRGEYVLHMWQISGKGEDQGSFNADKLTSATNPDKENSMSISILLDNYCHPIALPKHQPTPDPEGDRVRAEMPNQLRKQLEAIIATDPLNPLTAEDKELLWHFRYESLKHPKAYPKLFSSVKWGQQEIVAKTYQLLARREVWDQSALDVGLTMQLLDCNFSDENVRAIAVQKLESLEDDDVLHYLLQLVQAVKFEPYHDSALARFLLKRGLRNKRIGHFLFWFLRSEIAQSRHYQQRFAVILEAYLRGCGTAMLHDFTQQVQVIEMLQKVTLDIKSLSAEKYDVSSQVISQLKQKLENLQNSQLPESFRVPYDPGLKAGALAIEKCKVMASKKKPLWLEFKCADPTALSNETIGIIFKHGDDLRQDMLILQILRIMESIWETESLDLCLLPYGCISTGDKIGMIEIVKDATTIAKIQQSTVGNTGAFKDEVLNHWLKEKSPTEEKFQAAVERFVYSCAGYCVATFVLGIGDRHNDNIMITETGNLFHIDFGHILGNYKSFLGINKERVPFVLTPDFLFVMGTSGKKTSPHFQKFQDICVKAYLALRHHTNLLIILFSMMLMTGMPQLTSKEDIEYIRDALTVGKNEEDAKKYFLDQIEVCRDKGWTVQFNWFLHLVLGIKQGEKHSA

NEK3 = biological target: T4, NEK3 (Homo sapiens, UniProt P51956)
T4 sequence (P51956 1-506): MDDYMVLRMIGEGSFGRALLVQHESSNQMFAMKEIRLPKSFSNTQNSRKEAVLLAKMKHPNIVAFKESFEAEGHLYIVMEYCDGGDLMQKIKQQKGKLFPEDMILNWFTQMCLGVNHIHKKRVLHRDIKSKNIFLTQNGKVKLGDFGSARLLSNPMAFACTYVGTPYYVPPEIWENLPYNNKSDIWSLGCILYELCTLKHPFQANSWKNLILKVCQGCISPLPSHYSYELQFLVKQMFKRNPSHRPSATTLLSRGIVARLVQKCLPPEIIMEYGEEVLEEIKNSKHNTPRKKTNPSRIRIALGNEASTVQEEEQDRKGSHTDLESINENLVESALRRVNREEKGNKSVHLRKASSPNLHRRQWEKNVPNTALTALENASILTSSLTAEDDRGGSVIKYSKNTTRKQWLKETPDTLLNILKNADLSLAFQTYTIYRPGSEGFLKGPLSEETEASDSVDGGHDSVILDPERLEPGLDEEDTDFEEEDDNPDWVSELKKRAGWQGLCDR

[1] = read-out: Niraparib (MK-4827) / %Ctrl @ 10000nM
[2] = read-out: Rucaparib / %Ctrl @ 10000nM, binding competition, % of control
[3] = read-out: Olaparib / %Ctrl @ 10000nM
[4] = read-out: Talazoparib (BMN 673) / %Ctrl @ 10000nM

INSRR, sequence (P14616 whole entry): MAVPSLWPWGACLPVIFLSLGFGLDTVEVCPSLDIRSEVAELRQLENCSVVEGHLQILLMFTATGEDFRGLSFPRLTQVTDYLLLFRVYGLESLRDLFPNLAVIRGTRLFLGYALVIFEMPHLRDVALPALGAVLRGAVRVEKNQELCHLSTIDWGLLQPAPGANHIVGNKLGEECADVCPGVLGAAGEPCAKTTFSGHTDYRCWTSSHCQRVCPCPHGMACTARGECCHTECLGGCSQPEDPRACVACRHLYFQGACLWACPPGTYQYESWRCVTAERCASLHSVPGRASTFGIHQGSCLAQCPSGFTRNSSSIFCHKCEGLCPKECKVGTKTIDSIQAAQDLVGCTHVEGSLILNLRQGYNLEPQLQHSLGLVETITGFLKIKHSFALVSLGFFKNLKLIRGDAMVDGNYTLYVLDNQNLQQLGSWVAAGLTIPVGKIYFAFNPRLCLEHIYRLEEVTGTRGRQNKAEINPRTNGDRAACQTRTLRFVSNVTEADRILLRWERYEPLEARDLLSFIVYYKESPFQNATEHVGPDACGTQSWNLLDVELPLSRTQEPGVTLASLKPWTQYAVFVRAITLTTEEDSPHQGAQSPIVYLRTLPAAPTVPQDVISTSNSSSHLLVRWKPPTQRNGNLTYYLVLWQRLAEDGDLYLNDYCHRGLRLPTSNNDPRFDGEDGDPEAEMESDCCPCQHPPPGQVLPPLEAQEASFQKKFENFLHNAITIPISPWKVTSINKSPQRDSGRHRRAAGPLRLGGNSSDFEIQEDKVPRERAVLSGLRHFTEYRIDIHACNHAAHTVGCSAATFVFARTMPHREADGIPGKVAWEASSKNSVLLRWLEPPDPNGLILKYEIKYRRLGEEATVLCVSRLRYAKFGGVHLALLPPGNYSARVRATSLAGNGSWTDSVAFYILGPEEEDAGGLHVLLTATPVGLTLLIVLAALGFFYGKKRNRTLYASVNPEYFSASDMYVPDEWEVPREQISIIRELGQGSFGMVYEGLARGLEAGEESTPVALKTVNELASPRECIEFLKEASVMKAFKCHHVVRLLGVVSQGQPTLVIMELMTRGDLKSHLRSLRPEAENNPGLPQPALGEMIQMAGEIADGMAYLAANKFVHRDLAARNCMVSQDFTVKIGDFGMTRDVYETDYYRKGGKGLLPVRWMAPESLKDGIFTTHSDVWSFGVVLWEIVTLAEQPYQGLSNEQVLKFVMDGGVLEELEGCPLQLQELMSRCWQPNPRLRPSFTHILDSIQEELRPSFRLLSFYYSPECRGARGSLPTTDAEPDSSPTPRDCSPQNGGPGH

SMILES: NC(=O)c1cccc2cn(-c3ccc([C@@H]4CCCNC4)cc3)nc12 [Niraparib]
percent of control binding at 10 µM (INSRR; [1]): 92% | percent of control binding at 10 µM (DMPK2; [1]): 93% | percent of control binding at 10 µM (BMX; [1]): 87% | percent of control binding at 10 µM (CSNK1G2; [1]): 79% | percent of control binding at 10 µM (IKK-epsilon; [1]): 76% | percent of control binding at 10 µM (PIK3CG; [1]): 100% | percent of control binding at 10 µM (NEK3; [1]): 88%

percent of control binding at 10 µM (INSRR; [2]): 95% | percent of control binding at 10 µM (DMPK2; [2]): 99% | percent of control binding at 10 µM (BMX; [2]): 91% | percent of control binding at 10 µM (CSNK1G2; [2]): 89% | percent of control binding at 10 µM (IKK-epsilon; [2]): 73% | percent of control binding at 10 µM (PIK3CG; [2]): 88% | percent of control binding at 10 µM (NEK3; [2]): 86%
SMILES: CNCc1ccc(-c2[nH]c3cc(F)cc4c3c2CCNC4=O)cc1 [Rucaparib]

percent of control binding at 10 µM (INSRR; [3]): 100% | percent of control binding at 10 µM (DMPK2; [3]): 100% | percent of control binding at 10 µM (BMX; [3]): 98% | percent of control binding at 10 µM (CSNK1G2; [3]): 81% | percent of control binding at 10 µM (IKK-epsilon; [3]): 70% | percent of control binding at 10 µM (PIK3CG; [3]): 89% | percent of control binding at 10 µM (NEK3; [3]): 81%
SMILES: O=C(c1cc(Cc2n[nH]c(=O)c3ccccc23)ccc1F)N1CCN(C(=O)C2CC2)CC1 [Olaparib]

percent of control binding at 10 µM (INSRR; [4]): 100% | percent of control binding at 10 µM (DMPK2; [4]): 100% | percent of control binding at 10 µM (BMX; [4]): 100% | percent of control binding at 10 µM (CSNK1G2; [4]): 91% | percent of control binding at 10 µM (IKK-epsilon; [4]): 90% | percent of control binding at 10 µM (PIK3CG; [4]): 62% | percent of control binding at 10 µM (NEK3; [4]): 66%
SMILES: Cn1ncnc1[C@H]1c2n[nH]c(=O)c3cc(F)cc(c23)N[C@@H]1c1ccc(F)cc1 [Talazoparib]
